Measured values: a melting point compilation (Tetko et al.; mined from patent text by program, amines drawn as free bases though some values may be those of a salt)

SMILES	melting point [°C]
Cn1nc(-c2cnc3[nH]cc(C(=O)NC4CCCOC4)c3n2)c2ccc(Cl)cc21 (stereo not drawn)	320 to 323
CC12CC(=O)C3C(CCC4CC5OC5CC43C)C1CCC2C#N (stereo not drawn)	206 to 208
CCOC(=O)c1cnc2ccc(-c3ccc(Cl)cc3)cn12	130
C/C(=C\c1ccc(OCCN2CCOCC2)cc1)c1ccc2c(c1)SC(C)(C)S2	90 to 91
CCOCCOC(=O)C(=O)Nc1nc(-c2ccc(OCC)cc2)cs1	139 to 140
CC(c1ccc(-c2ccccc2)c(F)c1)c1csc(N)n1 (stereo not drawn)	167 to 168
COc1ccc(CN(CCN(C)CCCN=C(NC#N)NCCSCc2csc(NC(=N)N)n2)c2ccccn2)cc1	54
COc1cccc(CCC(=O)O)c1OCCCc1cn(-c2ccc(C(F)(F)F)cn2)nc1C(C)C	112 to 113
CNS(=O)(=O)c1cc(C(=O)CCl)ccc1Cl	153
C=C(C)C(=O)OCCOC(Cl)C(Cl)(Cl)Cl (stereo not drawn)	44 to 45
CCOc1ccc(CC(=O)Cc2csc(-c3ccc(OC)c(OC)c3)n2)cc1OCC	141 to 142
Cn1nc(C#Cc2ccccc2)ccc1=O	118 to 120
CNC(=C[N+](=O)[O-])NCCCCCCCCCCCCNC(C[N+](=O)[O-])NCCSCc1ccc(CN(C)C)o1 (stereo not drawn)	78 to 80
N#CC(=Cc1cccnc1)c1cc(Cl)cc(Cl)c1	139 to 141
Cc1ccc(I)c(CO)c1	82 to 85
O=S(Cc1cccc(O)c1)c1nc2cnccc2[nH]1 (stereo not drawn)	224 to 227
CN1C2=NCCN2C(=O)c2cccnc21	168 to 171
COc1ccc(C(=O)Nc2ccc3ccc(OC4CCN(C)CC4)nc3n2)cc1	200
COC1(c2ccc(N(C)C)cc2)OC(=O)c2ccccc21 (stereo not drawn)	112 to 114
Cc1nccc(N2CCN(C(=O)c3ccccc3)CC2)n1	147
CC(=O)N1CCc2c(sc(CCN3CCC(c4noc5cc(F)ccc45)CC3)c2Br)C1	114 to 117
FC(F)(Cc1c[nH]c2ccc(-n3cnnc3)cc12)CN1CCC(OCc2ccccc2)CC1	170
Nc1cc(N2CCc3ccccc3C2)ccn1	160 to 161
COC1(C)CCc2cc(OC(=O)c3ccccc3)c(C)c(C)c2O1 (stereo not drawn)	102
CCCCCCCCCCCCCCCC(=O)CSC	38 to 40
Cc1ccccc1-n1c(CSc2ncnc3[nH]cnc23)nc2cccc(Cl)c2c1=O	214

SMILES	melting point [°C]
CC(C)C/C=C\CCCCCCCCCC(=O)O	12.5
COc1cc(S(=O)(=O)c2ccncc2)ccc1NC(=O)C(C)(O)C(F)(F)F (stereo not drawn)	220 to 222
O=C(ON1C(=O)CCC1=O)c1cccnc1	129 to 131
COc1ccc(-c2ccc3c(c2)C(C)(C)OC(=O)N3)cc1F	210 to 211
COCc1sc(N)nc1C	132 to 135
Cc1nn(C)c(F)c1C(=O)Nc1ccccc1C(C)CC(C)(C)C (stereo not drawn)	78 to 80
C#CCNC(=O)c1ccccc1Nc1nc(Cl)ncc1Cl	188 to 191
CC(C)Cc1nn(C)c(=O)c2cc(Cc3ccccc3)sc12	97 to 98
CCOC(=O)C(Cc1ccc(C(F)(F)F)cc1)C(=O)c1ccc(Oc2ccccc2)cc1 (stereo not drawn)	67 to 68
CSc1nn2c(N3CCN(C)CC3)cc(C)nc2c1S(=O)(=O)c1ccc(C(C)C)cc1	> 230
Cc1ccc(C(=O)c2ccc(Cl)cc2)c(Cl)c1	58 to 60.5
Cc1nc(C(=O)c2[nH]c3ccc(Cl)cc3c2CC(=O)O)c[nH]1	237 to 238
CCOC(=O)c1ccc(NC(=O)C=Cc2ccc(OC)cc2)cc1	163 to 166
COc1ccc(-c2cn(C)cc(-c3ccccc3)c2=O)cc1OC	154 to 157
Cc1[nH]cnc1CON1C(=O)c2ccccc2C1=O	155 to 156
CN(C)c1ccc(C(=O)C(C)(C)N(C)C)cc1	89 to 91
CSc1nc(Cl)c(C#N)c(N2CCc3ccccc3CC2)n1	144 to 150
N#CC(C#N)=CN(N=C(C#N)C#N)c1ccc(Cl)cc1	161 to 162
O=[N+]([O-])c1cc(C(F)(F)F)cc([N+](=O)[O-])c1Nc1c(Cl)cncc1Cl	138 to 140
CCOCc1nc2c(N)nc3ccccc3c2n1CCOCCNC(=O)c1ccccc1	154 to 156
CCCCCNC(=O)Nc1ccccc1C(=O)NCC1CCN(C(c2ccccc2)c2ccccc2)CC1	178 to 180
CC(SN1C(=O)CCC1=O)c1ccccc1 (stereo not drawn)	121 to 125
CCCCCCCCCCCCn1nnc(C(C(=O)Nc2c(C(C)C)cccc2C(C)C)(c2ccccc2)c2ccccc2)n1	154 to 156
O=Cc1cccc2nnc(-c3ccccc3)cc12	156 to 157
CC(=O)NC(=N)NCCSCc1[nH]cnc1C	163 to 164
Cc1ccc2ncc(C(=O)NC3CCCC3)c(=O)n2c1	162 to 164

SMILES	melting point [°C]
Cn1cc(C(N)=O)c(=O)c2sc(Cl)cc21	325 to 327
C#CCOc1noc2ccc(N3C(=O)C4=C(CCCC4)C3=O)cc12	147 to 148
O=C(O)CCc1oc(Sc2ccccn2)nc1-c1ccc(Cl)cc1	172 to 173
CCCCCCCCCCCCCCCC(=O)Nc1cscc1NC(=O)CCCCCCCCCCCCCCC	107 to 109
Cc1ccc(-c2nc(COc3cccc(OCc4cccc(C)c4C(=O)O)c3)co2)s1	129 to 130
COc1ccc(/C(=C\C=C\C(=O)O)c2ccccc2)cc1	184 to 185
Cn1cc(C2=C(c3c4n(c5ccccc35)CC(O)CC4)C(=O)NC2=O)c2ccccc21 (stereo not drawn)	252 to 255
Cc1ccc(S(=O)(=S)OCCCCCCCCCCOS(=O)(=S)c2ccc(C)cc2)cc1 (stereo not drawn)	76 to 82
CCOC(=O)c1c(Nc2ccccc2OC)n[nH]c1C	162 to 172
Cn1cc2c(C3CC3C#N)c(Br)ccc2n1 (stereo not drawn)	154 to 156
O=C(O)C1=Cc2cc(Cl)c(Cl)cc2OC1C(F)(F)F (stereo not drawn)	196 to 198
COc1ccc(-c2c(Cl)c(CN3C(=O)CCC3=O)nc3sc4c(c23)CCNC4)cc1	225 to 226
CNC(=O)C1OC(n2cnc3c(NCc4cc(Cl)ccc4OCc4cc(C)no4)ncnc32)C(O)C1NC(=O)OC(C)(C)C (stereo not drawn)	135 to 137
NC(=O)C1CCCN(C(c2ccccc2)c2ccccc2)C1 (stereo not drawn)	86 to 87
COC(=O)c1cn2c(n1)COc1ccc(NC(C)=O)cc1-2	216 to 219
CC(C)CCS(=O)(=O)NC(=O)/C=C/c1cc(OC2CCOCC2)nn1Cc1ccc(Cl)cc1Cl	143 to 144
Oc1ncnc2c1c(Nc1cccc(Cl)c1)nn2Cc1ccccc1	148 to 150
COC(=O)c1nc(NC(=O)Nc2ccccc2)ccc1Oc1nc(OC)cc(OC)n1	236 to 237
CCOC(=O)c1ccc(-c2ccc(-c3ccccc3)cc2-c2ccc3c(c2)C(C)(C)CCC3(C)C)cc1O	< 70
CC(=NNc1ccc(C2=NNC(=O)CC2)cc1)c1cnccn1	197 to 202
O=C(NC(Cc1ccc(NCc2ccccc2)cc1)C(=O)O)c1cn2cc(-c3ccc(Cl)cc3)ccc2n1 (stereo not drawn)	260
COCC(O)COc1ccc2nc(S(N)(=O)=O)sc2c1 (stereo not drawn)	153 to 155
CC1(C)Oc2ccc(C#N)cc2[C@H](N(Cc2ncc[nH]2)c2ccc(Cl)cc2)[C@H]1O	266 to 267
CCCCSc1ccc(C(=O)O)nc1	100 to 102
Cc1cccc(Nc2ccccc2C(=O)NO)c1C	124 to 125
CCN1c2ncc(CCc3cccc(C)c3)cc2C(=O)N(C)c2cccnc21	103 to 104

SMILES	melting point [°C]
CC(C)(C)c1cc2c(c(C(C)(C)C)c1)OC(=O)C2c1ccc(C#N)cc1 (stereo not drawn)	136 to 137
CC(=O)Nc1ccc2c(c1)CN(C)CC2	157 to 159
COC(=O)c1c(C)cccc1[N+](=O)[O-]	44 to 45
NC(=O)c1ncccc1CCc1cccc(F)c1	102 to 104
COc1cc2c(cc1OC)C1NC(=O)CCC1=C2c1ccccc1 (stereo not drawn)	259 to 260
CC1(C)CC(Br)c2cc(C#N)ccc2O1 (stereo not drawn)	94 to 95
O=C(NC1CCOCC1)c1cccc(-c2cccc3cc(Cc4cc(F)cc(Cl)c4)sc23)c1	127 to 128
CC(C)=CCCC(C)=CCCC(C)=CC=CC(C)=CC(=O)O	78.4
CC(C)(CCCc1cccnc1)NC(=O)Cc1ccccc1[N+](=O)[O-]	117 to 118
CCC(=O)c1sc(Oc2ccc3c(c2)OCO3)c2c1CCc1cnn(C)c1-2	99 to 100
C[C@@H]1CN(C(=O)OC(C)(C)C)Cc2cc3cc(Br)c(F)cc3n21	116 to 118
Cc1ccc(C(=O)c2ccc(C(=O)c3ccc(C)cc3)cc2)cc1	178 to 187
CC(C)(C)OC(=O)N[C@@H](C(=O)N1CCC[C@H]1C(=O)NCC1CCc2nc(N)ncc2C1)C(c1ccccc1)c1ccccc1 (stereo partly drawn)	127 to 130
COC(=O)Cn1c(C(=O)N(CCC2CCCCC2)c2nc(-c3cc(OC)c(C)cc3OC)cs2)cc2ccccc21	144 to 146
CCCN(CCC)C1Cc2cccc3c2N(C1)C(=O)NC3 (stereo not drawn)	116 to 119
CCN(c1ccc2c(c1)OCO2)c1nc(=O)c2cccnc2s1	184 to 185
CCOC(=O)c1c(SC)nc(-c2ccc(SC)cc2)n(-c2ccc(C)cc2)c1=O	153 to 155
COc1ccc2c(c1O)NC(O)C1CCCN1C2=O (stereo not drawn)	152 to 155
NC1CC(N)(C(=O)O)C2C(C(=O)O)C12 (stereo not drawn)	> 275
O=C1CC(c2ccccc2O)=Nc2ccc(N3CCCC3)cc21	304 to 306
CC(C)(C)c1cc(-c2nn(Cc3cccc(C(F)(F)F)c3)c3ncccc23)cc(C(C)(C)C)c1O	160 to 163
CC(=O)OC1c2ccccc2C(=O)N1CCO[N+](=O)[O-] (stereo not drawn)	74 to 75
CCCCCCCCCCCCCCCCCCOc1cc2ccccc2c(N=Nc2ccc(OC)cc2)c1O	95 to 97
OCC1OC(n2cnc3c(NC4CCCCC4)ncnc32)C(O)C1O (stereo not drawn)	185 to 187
c1cc2ncn(CCCCc3nnnn3C3CCCCC3)c2cn1	133 to 135
